Measured values reported in article PMC6516726 (ACS Catalysis, 2018).
Like-named read-outs stand apart in the source and are kept apart here.

What was measured:
WT PETNR [1] = target: T1, WT PETNR (Enterobacter cloacae, UniProt P71278); assay: pH dependence of FMN reduction of WT PETNR in MTEN buffer; assay type: biochemical, Enterobacter Cloacae PB2; design: made in house; details: for Isotope effect on ΔCp⧧ / Isotope effect on ΔHT0⧧ / Isotope effect on ΔST0⧧: (R)-[4-2H]-NADPH - NADPH
Procedure: (R)-[4-2H]-NADPH at pH 6, pH 7 and pH9 (A) and the corresponding temperature dependencies of the observed primary kinetic isotope effects (B). The measurements were performed in MTEN buffer (50 mM MES, 25 mM Tris, 25 mM ethanola-mine, and 100 mM NaCl), which has a useful buffering capacity and minimal change in ionic strength over the pH range 6-9 in which PETNR is stable; we attempted testing PETNR in pH 5 as well, but the enzyme is unstable at this pH. The observed rate constants of FMN reduction at pH 7 in MTEN buffer are essentially the same to those measured in 50 mM potassium phosphate buffer, pH 7 and similar observation are valid for the KIEs values (Table S3).The rate of FMN reduction is essentially insensitive to pH across the whole temperature range (5-40 °C), and also that KIEs values are essentially not affected by changes in pH (the rate of FMN reduction by (R)-[4-2H]-NADPH is independent of pH as well across all temperatures studied; see Table S3 for extracted thermodynamic parameters). Although these experiments cannot completely exclude any kinetic […]
of H-transfer and protonation (which would lead to pH-dependent rates) which makes it very likely that the observed rate are reporting directly on the H-transfer step.
Table S3. Extracted Thermodynamic Parameters from pH Dependence Studies.
(kJ mol-1) (J mol-1 K-1) (kJ mol-1 K-1)

L25A PETNR = L25A PETNR (Enterobacter cloacae, UniProt P71278, L26A); details: for kobs1 / kobs2 / A2 (amplitude of kobs2 out of total absorbance change): 10 mM NADPH or 25 mM NADH, pH 7.0
L25I PETNR = L25I PETNR (Enterobacter cloacae, UniProt P71278, L26I); details: for kobs1 / A2 (amplitude of kobs2 out of total absorbance change) / kobs2: 10 mM NADPH or 25 mM NADH, pH 7.0
WT PETNR [2] = target: T1, WT PETNR; assay: Stopped-flow FMN reduction (reductive half-reaction, hydride transfer) of WT PETNR by coenzyme; details: for kobs1 / A2 (amplitude of kobs2 out of total absorbance change) / kobs2: 10 mM NADPH or 25 mM NADH, pH 7.0
[3] = T0 = 298 K, fit of kobs1 (5–40 °C) to eq 1
[4] = deuterated minus protiated coenzyme, T0 = 298 K

T1 sequence (P71278 entry or part of it): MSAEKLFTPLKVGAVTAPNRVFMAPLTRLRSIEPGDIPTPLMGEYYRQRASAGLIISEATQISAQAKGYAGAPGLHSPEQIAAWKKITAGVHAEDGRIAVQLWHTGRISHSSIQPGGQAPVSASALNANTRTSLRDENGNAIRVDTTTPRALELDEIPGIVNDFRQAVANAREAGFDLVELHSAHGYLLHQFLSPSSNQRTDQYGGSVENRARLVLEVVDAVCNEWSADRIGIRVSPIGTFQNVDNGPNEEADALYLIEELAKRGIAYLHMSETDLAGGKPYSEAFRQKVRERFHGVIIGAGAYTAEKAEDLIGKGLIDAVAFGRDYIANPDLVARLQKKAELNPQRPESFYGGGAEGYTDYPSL
L25A PETNR, sequence (P71278 entry or part of it L26A): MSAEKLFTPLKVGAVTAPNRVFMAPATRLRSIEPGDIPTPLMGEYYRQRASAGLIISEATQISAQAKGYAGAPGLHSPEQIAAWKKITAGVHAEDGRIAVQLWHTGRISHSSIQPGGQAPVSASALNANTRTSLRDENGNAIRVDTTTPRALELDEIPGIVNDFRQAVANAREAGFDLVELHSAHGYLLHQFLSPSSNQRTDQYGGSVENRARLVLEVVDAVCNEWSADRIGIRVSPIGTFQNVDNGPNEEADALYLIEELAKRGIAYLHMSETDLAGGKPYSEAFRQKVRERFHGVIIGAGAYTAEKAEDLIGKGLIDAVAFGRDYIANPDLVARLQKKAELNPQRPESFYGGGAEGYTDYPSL
L25I PETNR, sequence (P71278 entry or part of it L26I): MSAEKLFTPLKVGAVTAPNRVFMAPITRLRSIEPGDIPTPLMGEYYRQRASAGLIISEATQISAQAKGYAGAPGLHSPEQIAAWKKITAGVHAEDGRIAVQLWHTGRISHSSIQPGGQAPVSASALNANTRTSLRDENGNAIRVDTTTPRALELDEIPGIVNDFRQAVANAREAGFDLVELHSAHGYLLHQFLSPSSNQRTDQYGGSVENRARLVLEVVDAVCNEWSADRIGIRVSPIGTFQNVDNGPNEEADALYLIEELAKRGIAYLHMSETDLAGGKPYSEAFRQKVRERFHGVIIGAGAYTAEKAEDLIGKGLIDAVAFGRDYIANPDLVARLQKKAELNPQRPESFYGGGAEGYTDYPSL

Question: `[2H][C@@H]1C=CN([C@@H]2O[C@H](COP(=O)(O)OP(=O)(O)OC[C@H]3O[C@@H](n4cnc5c(N)ncnc54)[C@H](OP(=O)(O)O)[C@@H]3O)[C@@H](O)[C@H]2O)C=C1C(N)=O` [(R)-[4-^2H]-NADPH] was tested. Which “ΔCp⧧” value (WT PETNR [1]; pH 6, MTEN buffer) did it give?
Answer: The value was -0.57 ± 0.15 kJ mol-1 K-1.

Question: And the “ΔHT0⧧” value (WT PETNR [1]; pH 6, MTEN buffer)?
Answer: The value was 7.89 ± 0.22 kcal/mol.

Question: And the “Isotope effect on ΔCp⧧” value (WT PETNR [1]; pH 6, MTEN buffer)?
Answer: The value was 0.01 ± 0.18 kJ mol-1 K-1.

Question: What about the “Isotope effect on ΔHT0⧧” value (WT PETNR [1]; pH 6, MTEN buffer) of the same molecule?
Answer: The value was 1.39 ± 0.263 kcal/mol.

Question: And the “Isotope effect on ΔST0⧧” value (WT PETNR [1]; pH 6, MTEN buffer)?
Answer: The value was 3.7 ± 3.5 J mol-1 K-1.

Question: What about the “ΔCp⧧” value (WT PETNR [1]; pH 7, MTEN buffer) of the same molecule?
Answer: Its value is -0.54 ± 0.09 kJ mol-1 K-1.

Question: And the “ΔHT0⧧” value (WT PETNR [1]; pH 7, MTEN buffer)?
Answer: Its value is 8.27 ± 0.12 kcal/mol.

Question: And the “ΔST0⧧” value (WT PETNR [1]; pH 7, MTEN buffer)?
Answer: The value was -115.0 ± 1.8 J mol-1 K-1.

Question: And the “Isotope effect on ΔCp⧧” value (WT PETNR [1]; pH 7, MTEN buffer)?
Answer: Its value is 0.07 ± 0.12 kJ mol-1 K-1.

Question: And the “Isotope effect on ΔHT0⧧” value (WT PETNR [1]; pH 7, MTEN buffer)?
Answer: The value was 1.67 ± 0.17 kcal/mol.

Question: What about the “Isotope effect on ΔST0⧧” value (WT PETNR [1]; pH 7, MTEN buffer) of the same molecule?
Answer: The value was 7.7 ± 2.4 J mol-1 K-1.

Question: And the “ΔCp⧧” value (WT PETNR [1]; pH 9, MTEN buffer)?
Answer: Its value is -0.48 ± 0.07 kJ mol-1 K-1.

Question: And the “ΔHT0⧧” value (WT PETNR [1]; pH 9, MTEN buffer)?
Answer: The value was 8.48 ± 0.096 kcal/mol.

Question: What about the “ΔST0⧧” value (WT PETNR [1]; pH 9, MTEN buffer) of the same molecule?
Answer: The value was -111.9 ± 1.3 J mol-1 K-1.

Question: What about the “Isotope effect on ΔCp⧧” value (WT PETNR [1]; pH 9, MTEN buffer) of the same molecule?
Answer: The value was -0.03 ± 0.13 kJ mol-1 K-1.

Question: And the “Isotope effect on ΔHT0⧧” value (WT PETNR [1]; pH 9, MTEN buffer)?
Answer: The value was 1.58 ± 0.19 kcal/mol.

Question: And the “Isotope effect on ΔST0⧧” value (WT PETNR [1]; pH 9, MTEN buffer)?
Answer: The value was 6.7 ± 2.6 J mol-1 K-1.

Question: What about the kobs1 (L25A PETNR; 5 °C) of the same molecule?
Answer: Its kobs1 is 2.37 ± 0.01 s⁻¹.

Question: And the kobs1 (L25A PETNR; 10 °C)?
Answer: Its kobs1 is 3.33 ± 0.03 s⁻¹.

Question: What about the kobs1 (L25A PETNR; 15 °C) of the same molecule?
Answer: Its kobs1 is 4.59 ± 0.03 s⁻¹.

Question: What about the kobs1 (L25A PETNR; 20 °C) of the same molecule?
Answer: Its kobs1 is 6.14 ± 0.04 s⁻¹.

Question: And the kobs1 (L25A PETNR; 25 °C)?
Answer: The kobs1 was 8.01 ± 0.22 s⁻¹.

Question: What about the kobs2 (L25A PETNR; 25 °C) of the same molecule?
Answer: The kobs2 was 0.03 ± 0.03 s⁻¹.

Question: What about the “A2 (amplitude of kobs2 out of total absorbance change)” value (L25A PETNR; 30 °C) of the same molecule?
Answer: The value was 5.83 ± 0.60%.

Question: What about the kobs1 (L25A PETNR; 30 °C) of the same molecule?
Answer: Its kobs1 is 10.24 ± 0.05 s⁻¹.

Question: And the kobs2 (L25A PETNR; 30 °C)?
Answer: The kobs2 was 0.16 ± 0.03 s⁻¹.

Question: What about the “A2 (amplitude of kobs2 out of total absorbance change)” value (L25A PETNR; 35 °C) of the same molecule?
Answer: The value was 14.06 ± 0.45%.

Question: And the kobs1 (L25A PETNR; 35 °C)?
Answer: The kobs1 was 11.89 ± 0.07 s⁻¹.

Question: And the kobs2 (L25A PETNR; 35 °C)?
Answer: The kobs2 was 0.17 ± 0.01 s⁻¹.

Question: What about the “A2 (amplitude of kobs2 out of total absorbance change)” value (L25A PETNR; 40 °C) of the same molecule?
Answer: The value was 31.19 ± 1.07%.

Question: What about the kobs1 (L25A PETNR; 40 °C) of the same molecule?
Answer: The kobs1 was 12.39 ± 0.22 s⁻¹.

Question: And the kobs2 (L25A PETNR; 40 °C)?
Answer: Its kobs2 is 0.26 ± 0.02 s⁻¹.

Question: And the “ΔCp^⧧” value (L25A PETNR; [3])?
Answer: Its value is “–0.78 ± 0.15 kJ mol^–1 K^–1”.

Question: And the “ΔHT0^⧧” value (L25A PETNR; [3])?
Answer: The value was 31.9 ± 1.1 kJ mol^–1.

Question: What about the “ΔST0^⧧” value (L25A PETNR; [3]) of the same molecule?
Answer: Its value is “–120.5 ± 3.7 J mol^–1 K^–1”.

Question: What about the “Isotope Effect on ΔCp^⧧” value (L25A PETNR; [4]) of the same molecule?
Answer: Its value is 0.14 ± 0.19 kJ mol^–1 K^–1.

Question: What about the “Isotope Effect on ΔHT0^⧧” value (L25A PETNR; [4]) of the same molecule?
Answer: Its value is 8.6 ± 1.27 kJ mol^–1.

Question: What about the “Isotope Effect on ΔST0^⧧” value (L25A PETNR; [4]) of the same molecule?
Answer: Its value is 13.3 ± 5.6 J mol^–1 K^–1.

Question: What about the kobs1 (L25I PETNR; 5 °C) of the same molecule?
Answer: The kobs1 was 1.26 ± 0.02 s⁻¹.

Question: What about the kobs1 (L25I PETNR; 15 °C) of the same molecule?
Answer: Its kobs1 is 2.46 ± 0.01 s⁻¹.

Question: And the “A2 (amplitude of kobs2 out of total absorbance change)” value (L25I PETNR; 20 °C)?
Answer: The value was 2.63 ± 0.15%.

Question: And the kobs1 (L25I PETNR; 20 °C)?
Answer: The kobs1 was 3.42 ± 0.03 s⁻¹.

Question: What about the kobs2 (L25I PETNR; 20 °C) of the same molecule?
Answer: The kobs2 was 0.19 ± 0.04 s⁻¹.

Question: And the “A2 (amplitude of kobs2 out of total absorbance change)” value (L25I PETNR; 25 °C)?
Answer: The value was 3.59 ± 0.27%.

Question: And the kobs1 (L25I PETNR; 25 °C)?
Answer: Its kobs1 is 4.50 ± 0.02 s⁻¹.

Question: And the kobs2 (L25I PETNR; 25 °C)?
Answer: The kobs2 was 0.27 ± 0.03 s⁻¹.

Question: What about the kobs1 (L25I PETNR; 30 °C) of the same molecule?
Answer: Its kobs1 is 5.72 ± 0.06 s⁻¹.

Question: What about the kobs2 (L25I PETNR; 30 °C) of the same molecule?
Answer: Its kobs2 is 0.28 ± 0.01 s⁻¹.

Question: And the “A2 (amplitude of kobs2 out of total absorbance change)” value (L25I PETNR; 35 °C)?
Answer: The value was 7.05 ± 0.36%.

Question: And the kobs1 (L25I PETNR; 35 °C)?
Answer: Its kobs1 is 7.20 ± 0.07 s⁻¹.

Question: What about the kobs2 (L25I PETNR; 35 °C) of the same molecule?
Answer: The kobs2 was 0.42 ± 0.07 s⁻¹.

Question: And the “A2 (amplitude of kobs2 out of total absorbance change)” value (L25I PETNR; 40 °C)?
Answer: The value was 12.46 ± 0.45%.

Question: What about the kobs1 (L25I PETNR; 40 °C) of the same molecule?
Answer: Its kobs1 is 8.66 ± 0.09 s⁻¹.

Question: And the “ΔCp^⧧” value (L25I PETNR; [3])?
Answer: Its value is “–0.53 ± 0.09 kJ mol^–1 K^–1”.

Question: What about the “ΔHT0^⧧” value (L25I PETNR; [3]) of the same molecule?
Answer: The value was 36.7 ± 0.5 kJ mol^–1.

Question: And the “Isotope Effect on ΔCp^⧧” value (L25I PETNR; [4])?
Answer: Its value is “–0.11 ± 0.11 kJ mol^–1 K^–1”.

Question: What about the “Isotope Effect on ΔHT0^⧧” value (L25I PETNR; [4]) of the same molecule?
Answer: The value was 6.3 ± 0.7 kJ mol^–1.

Question: And the “Isotope Effect on ΔST0^⧧” value (L25I PETNR; [4])?
Answer: The value was 5.4 ± 2.5 J mol^–1 K^–1.

Question: And the kobs1 (WT PETNR [2]; 5 °C)?
Answer: Its kobs1 is 1.51 ± 0.01 s⁻¹.

Question: What about the kobs1 (WT PETNR [2]; 10 °C) of the same molecule?
Answer: The kobs1 was 2.13 ± 0.01 s⁻¹.

Question: What about the kobs1 (WT PETNR [2]; 15 °C) of the same molecule?
Answer: Its kobs1 is 2.90 ± 0.01 s⁻¹.

Question: What about the kobs1 (WT PETNR [2]; 20 °C) of the same molecule?
Answer: The kobs1 was 3.95 ± 0.02 s⁻¹.

Question: What about the kobs1 (WT PETNR [2]; 25 °C) of the same molecule?
Answer: Its kobs1 is 5.20 ± 0.04 s⁻¹.

Question: What about the kobs1 (WT PETNR [2]; 30 °C) of the same molecule?
Answer: The kobs1 was 6.59 ± 0.04 s⁻¹.

Question: And the “A2 (amplitude of kobs2 out of total absorbance change)” value (WT PETNR [2]; 35 °C)?
Answer: The value was 2.54 ± 0.53%.

Question: What about the kobs1 (WT PETNR [2]; 35 °C) of the same molecule?
Answer: Its kobs1 is 8.48 ± 0.03 s⁻¹.

Question: What about the kobs2 (WT PETNR [2]; 35 °C) of the same molecule?
Answer: The kobs2 was 1.22 ± 0.45 s⁻¹.

Question: And the “A2 (amplitude of kobs2 out of total absorbance change)” value (WT PETNR [2]; 40 °C)?
Answer: Its value is 3.41 ± 0.65%.

Question: What about the kobs1 (WT PETNR [2]; 40 °C) of the same molecule?
Answer: The kobs1 was 9.96 ± 0.18 s⁻¹.

Question: What about the kobs2 (WT PETNR [2]; 40 °C) of the same molecule?
Answer: The kobs2 was 1.11 ± 0.24 s⁻¹.

Question: And the “ΔCp^⧧” value (WT PETNR [2]; [3])?
Answer: The value was “–0.32 ± 0.04 kJ mol^–1 K^–1”.

Question: And the “ΔHT0^⧧” value (WT PETNR [2]; [3])?
Answer: The value was 36.8 ± 0.3 kJ mol^–1.

Question: What about the “Isotope Effect on ΔCp^⧧” value (WT PETNR [2]; [4]) of the same molecule?
Answer: The value was 0.18 ± 0.06 kJ mol^–1 K^–1.

Question: What about the “Isotope Effect on ΔHT0^⧧ (ΔΔHT0^⧧)” value (WT PETNR [2]; [4]) of the same molecule?
Answer: Its value is 6.4 ± 0.4 kJ mol^–1.

Question: What about the “Isotope Effect on ΔST0^⧧” value (WT PETNR [2]; [4]) of the same molecule?
Answer: The value was 5.8 ± 1.5 J mol^–1 K^–1.
